Where two headings read alike, the source gives them in different places.
How the values were obtained:
[1] = molecular target: T1, Recombinant human NK3 (hNK3) receptor (Homo sapiens, UniProt P29371); test: NK3 receptor binding, [3H]SR142801 displacement, membrane preparations
T1 construct: expressed in transfected cells
T1 sequence (P29371 1-465): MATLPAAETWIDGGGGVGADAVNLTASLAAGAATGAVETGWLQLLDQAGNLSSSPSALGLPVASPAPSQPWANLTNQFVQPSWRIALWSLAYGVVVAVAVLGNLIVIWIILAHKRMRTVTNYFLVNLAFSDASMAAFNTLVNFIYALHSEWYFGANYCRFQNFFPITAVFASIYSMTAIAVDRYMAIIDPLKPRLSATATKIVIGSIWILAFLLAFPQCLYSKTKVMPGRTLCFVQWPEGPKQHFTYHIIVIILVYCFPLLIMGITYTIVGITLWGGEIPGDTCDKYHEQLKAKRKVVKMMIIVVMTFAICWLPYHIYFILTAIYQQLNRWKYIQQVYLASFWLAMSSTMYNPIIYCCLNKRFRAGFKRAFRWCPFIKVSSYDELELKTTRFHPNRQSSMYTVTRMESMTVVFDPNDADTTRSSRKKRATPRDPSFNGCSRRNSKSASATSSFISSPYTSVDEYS
Protocol: Non specific binding was determined using 10 μM SB222200. Assay buffer consisted of Tris-HCl (50 mM, pH 7.4), BSA (0.1%), MnCl2 (4 mM) and phosphoramidon (1 μM). Membrane preparations of hNK3 receptors (approximately 2.5 μg/well in a 96 well plate) were used to initiate the incubation for 90 min at room temperature. This assay was terminated by rapid filtration under vacuum through GF/C filters, presoaked for 90 min with PEI (0.3%), with 3×0.5 ml washes of ice-cold Tris buffer (50 mM, pH 7.4) containing 0.1% BSA. The radioactivity retained on the filters was measured by scintillation counting. All assays were performed in duplicate in at least two separate experiments.

human NK1 receptor = human NK1 receptor (Homo sapiens, UniProt P25103); test: NK1 receptor binding, [3H]substance P displacement, CHO cell membranes
human NK1 receptor, sequence (P25103 whole entry): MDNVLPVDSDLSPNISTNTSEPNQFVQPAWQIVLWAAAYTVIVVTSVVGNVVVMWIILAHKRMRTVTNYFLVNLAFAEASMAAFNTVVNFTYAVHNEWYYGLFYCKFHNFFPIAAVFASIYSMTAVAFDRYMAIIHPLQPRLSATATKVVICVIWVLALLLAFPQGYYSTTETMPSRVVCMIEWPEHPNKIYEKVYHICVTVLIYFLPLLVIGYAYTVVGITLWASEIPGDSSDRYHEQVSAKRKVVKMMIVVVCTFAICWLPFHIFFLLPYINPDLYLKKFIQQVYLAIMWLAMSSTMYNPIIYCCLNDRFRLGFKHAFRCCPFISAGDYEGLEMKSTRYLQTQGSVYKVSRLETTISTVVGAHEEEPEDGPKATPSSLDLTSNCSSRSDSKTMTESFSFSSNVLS

[2] = second value of the cell NK1/NK3, read-out: pKi NK3 (converted)
[3] = first value of the cell NK1/NK3, read-out: pKi NK1 (converted)
[4] = second value of the cell pKi NK1/NK3, hNK3 receptor, [3H]SR142801
[5] = first value of the cell pKi NK1/NK3, human NK1 receptor, [3H]substance P

SMILES | Ki [1, 2] | Ki (human NK1 receptor; [3]) | Ki [1, 4] | Ki (human NK1 receptor; [5])
CCN(CCO)c1cc(-c2ccccc2C)c(N(C)C(=O)C(C)(C)c2cc(C(F)(F)F)cc(C(F)(F)F)c2)cn1 [Example 118, 2-(3,5-Bis-trifluoromethyl-phenyl)-N-{6-[ethyl-(2-hydroxy-ethyl)-amino]-4-o-tolyl-pyridin-3-yl}-N-methyl-isobutyramide] | – | – | 4.57 nM | 3.63 nM
CN(C(=O)C(C)(C)c1cc(C(F)(F)F)cc(C(F)(F)F)c1)c1cnc(NCC(O)CO)cc1-c1ccccc1Cl (racemic) [Example 78, (RS)-2-(3,5-Bis-trifluoromethyl-phenyl)-N-[4-(2-chloro-phenyl)-6-(2,3-dihydroxy-propylamino)-pyridin-3-yl]-N-methyl-isobutyramide] | – | – | 6.17 nM | 2.82 nM
Cc1cc(F)ccc1-c1cc(N2CCC[C@H]2CO)ncc1N(C)C(=O)C(C)(C)c1cc(Cl)cc(OC(F)F)c1 [Example 38, (S)-2-(3-Chloro-5-difluoromethoxy-phenyl)-N-[4-(4-fluoro-2-methyl-phenyl)-6-(2-hydroxymethyl-pyrrolidin-1-yl)-pyridin-3-yl]-N-methyl-isobutyramide] | – | – | 2.24 nM | 3.55 nM
Cc1ccccc1-c1cc(N2CC[C@H](O)[C@H](O)C2)ncc1N(C)C(=O)C(C)(C)c1cc(C(F)(F)F)cc(C(F)(F)F)c1 (racemic) [Example 185, (3RS,4SR)-2-(3,5-Bis-trifluoromethyl-phenyl)-N-(3,4-dihydroxy-4′-o-tolyl-3,4,5,6-tetrahydro-2H-[1,2′]bipyridinyl-5′-yl)-N-methyl-isobutyramide] | – | – | 32.4 nM | 1.55 nM
Cc1cc(F)ccc1-c1cc(N(CCO)CCO)ncc1N(C)C(=O)C(C)(C)c1cc(C(F)(F)F)cc(C(F)(F)F)c1 [Example 84, N-[6-[Bis-(2-hydroxy-ethyl)-amino]-4-(4-fluoro-2-methyl-phenyl)-pyridin-3-yl]-2-(3,5-bis-trifluoromethyl-phenyl)-N-methyl-isobutyramide] | – | – | 1.74 nM | 3.39 nM
CCN(C(C)=O)[C@@H]1CCN(c2cc(-c3ccc(F)cc3C)c(N(C)C(=O)C(C)(C)c3cc(C(F)(F)F)cc(C(F)(F)F)c3)cn2)C1 [Example 102, (R)-N-[6-[3-(Acetyl-ethyl-amino)-pyrrolidin-1-yl]-4-(4-fluoro-2-methyl-phenyl)-pyridin-3-yl]-2-(3,5-bis-trifluoromethyl-phenyl)-N-methyl-isobutyramide] | – | – | 13.2 nM | 1.95 nM
CN(C(=O)C(C)(C)c1cc(C(F)(F)F)cc(C(F)(F)F)c1)c1cnc(N2CC[C@H](O)[C@H]2CO)cc1-c1cccc(Cl)c1 [Example 269, (2R,3S)-2-(3,5-Bis-trifluoromethyl-phenyl)-N-[4-(3-chloro-phenyl)-6-(3-hydroxy-2-hydroxymethyl-pyrrolidin-1-yl)-pyridin-3-yl]-N-methyl-isobutyramide] | 3.55 nM | 1.86 nM | – | –
CN(C(=O)C(C)(C)c1cc(C(F)(F)F)cc(C(F)(F)F)c1)c1cnc(N2CCC(N)CC2)cc1-c1ccccc1Cl [Example 112, N-[4-Amino-4′-(2-chloro-phenyl)-3,4,5,6-tetrahydro-2H-[1,2′]bipyridinyl-5′-yl]-2-(3,5-bis-trifluoromethyl-phenyl)-N-methyl-isobutyramide] | – | – | 5.5 nM | 0.562 nM
Cc1cc(F)ccc1-c1cc(N2CCOC[C@H]2CO)ncc1N(C)C(=O)C(C)(C)c1cc(C(F)(F)F)cc(C(F)(F)F)c1 [Example 174, (R)-2-(3,5-Bis-trifluoromethyl-phenyl)-N-[4-(4-fluoro-2-methyl-phenyl)-6-(3-hydroxymethyl-morpholin-4-yl)-pyridin-3-yl]-N-methyl-isobutyramide] | – | – | 2.57 nM | 1.66 nM
Cc1cc(-c2cc(N3C[C@H](O)C[C@H]3CO)ncc2N(C)C(=O)C(C)(C)c2cc(C(F)(F)F)cc(C(F)(F)F)c2)ccc1F [Example 211, (2S,4R)-2-(3,5-Bis-trifluoromethyl-phenyl)-N-[4-(4-fluoro-3-methyl-phenyl)-6-(4-hydroxy-2-hydroxymethyl-pyrrolidin-1-yl)-pyridin-3-yl]-N-methyl-isobutyramide] | 15.5 nM | 1.66 nM | – | –

The next lines start with the values.

Ki [1, 2] | Ki (human NK1 receptor; [3]) | Ki [1, 4] | Ki (human NK1 receptor; [5]) | SMILES
3.89 nM | 0.427 nM | – | – | Cc1ncccc1-c1cc(N2C[C@H](O)C[C@H]2CO)ncc1N(C)C(=O)C(C)(C)c1cc(C(F)(F)F)cc(C(F)(F)F)c1 [Example 233, (2S,4R)-2-(3,5-Bis-trifluoromethyl-phenyl)-N-[6′-(4-hydroxy-2-hydroxymethyl-pyrrolidin-1-yl)-2-methyl-[3,4′]bipyridinyl-3′-yl]-N-methyl-isobutyramide]
13.8 nM | 2.29 nM | – | – | Cc1ccc(-c2cc(N3C[C@H](O)C[C@H]3CO)ncc2N(C)C(=O)C(C)(C)c2cc(C(F)(F)F)cc(C(F)(F)F)c2)cc1F [Example 210, (2S,4R)-2-(3,5-Bis-trifluoromethyl-phenyl)-N-[4-(3-fluoro-4-methyl-phenyl)-6-(4-hydroxy-2-hydroxymethyl-pyrrolidin-1-yl)-pyridin-3-yl]-N-methyl-isobutyramide]
– | – | 12.3 nM | 1.7 nM | CN(C(=O)C(C)(C)c1cc(C(F)(F)F)cc(C(F)(F)F)c1)c1cnc(NCC(C)(C)O)cc1-c1ccccc1Cl [Example 75, 2-(3,5-Bis-trifluoromethyl-phenyl)-N-[4-(2-chloro-phenyl)-6-(2-hydroxy-2-methyl-propylamino)-pyridin-3-yl]-N-methyl-isobutyramide]
– | – | 26.3 nM | 0.724 nM | C[C@H](O)CNc1cc(-c2ccccc2Cl)c(N(C)C(=O)C(C)(C)c2cc(C(F)(F)F)cc(C(F)(F)F)c2)cn1 [Example 72, (S)-2-(3,5-Bis-trifluoromethyl-phenyl)-N-[4-(2-chloro-phenyl)-6-(2-hydroxy-propylamino)-pyridin-3-yl]-N-methyl-isobutyramide]
– | – | 10 nM | 2.09 nM | Cc1ccccc1-c1cc(N2CCC[C@@H]2CO)ncc1N(C)C(=O)C(C)(C)c1cc(C(F)(F)F)cc(C(F)(F)F)c1 [Example 168, (R)-2-(3,5-Bis-trifluoromethyl-phenyl)-N-[6-(2-hydroxymethyl-pyrrolidin-1-yl)-4-o-tolyl-pyridin-3-yl]-N-methyl-isobutyramide]
– | – | 3.24 nM | 0.49 nM | CN(C(=O)C(C)(C)c1cc(C(F)(F)F)cc(C(F)(F)F)c1)c1cnc(NCCS(C)(=O)=O)cc1-c1ccccc1Cl [Example 89, 2-(3,5-Bis-trifluoromethyl-phenyl)-N-[4-(2-chloro-phenyl)-6-(2-methanesulfonyl-ethylamino)-pyridin-3-yl]-N-methyl-isobutyramide]
– | – | 5.25 nM | 4.57 nM | CCCN(CCO)c1cc(-c2ccccc2Cl)c(N(C)C(=O)C(C)(C)c2cc(C(F)(F)F)cc(C(F)(F)F)c2)cn1 [Example 56, 2-(3,5-Bis-trifluoromethyl-phenyl)-N-{4-(2-chloro-phenyl)-6-[(2-hydroxy-ethyl)-propyl-amino]-pyridin-3-yl}-N-methyl-isobutyramide]
– | – | 7.94 nM | 1.26 nM | CN(C(=O)C(C)(C)c1cc(C(F)(F)F)cc(C(F)(F)F)c1)c1cnc(N[C@H]2CC[C@H](O)CC2)cc1-c1ccccc1Cl [Example 60, trans-2-(3,5-Bis-trifluoromethyl-phenyl)-N-[4-(2-chloro-phenyl)-6-(4-hydroxy-cyclohexylamino)-pyridin-3-yl]-N-methyl-isobutyramide]
– | – | 13.8 nM | 2.63 nM | CC(O)CN(CC(C)O)c1cc(-c2ccccc2Cl)c(N(C)C(=O)C(C)(C)c2cc(C(F)(F)F)cc(C(F)(F)F)c2)cn1 (centres unmarked) [Example 124, N-[6-[Bis-(2-hydroxy-propyl)-amino]-4-(2-chloro-phenyl)-pyridin-3-yl]-2-(3,5-bis-trifluoromethyl-phenyl)-N-methyl-isobutyramide]
– | – | 21.4 nM | 1.02 nM | Cc1cc(F)ccc1-c1cc(N[C@H]2CC[C@H](O)CC2)ncc1N(C)C(=O)C(C)(C)c1cc(C(F)(F)F)cc(C(F)(F)F)c1 [Example 92, trans-2-(3,5-Bis-trifluoromethyl-phenyl)-N-[4-(4-fluoro-2-methyl-phenyl)-6-(4-hydroxy-cyclohexylamino)-pyridin-3-yl]-N-methyl-isobutyramide]
– | – | 1.1 nM | 1.78 nM | Cc1ccccc1-c1cc(N2CCC[C@H]2CO)ncc1N(C)C(=O)C(C)(C)c1cc(Cl)cc(Cl)c1 [Example 11, (S)-2-(3,5-Dichloro-phenyl)-N-[6-(2-hydroxymethyl-pyrrolidin-1-yl)-4-o-tolyl-pyridin-3-yl]-N-methyl-isobutyramide]
4.9 nM | 1.45 nM | – | – | CN(C(=O)C(C)(C)c1cc(C(F)(F)F)cc(C(F)(F)F)c1)c1cnc(N2CC[C@H](O)[C@H]2CO)cc1-c1ccccc1 [Example 265, (2R,3S)-2-(3,5-Bis-trifluoromethyl-phenyl)-N-[6-(3-hydroxy-2-hydroxymethyl-pyrrolidin-1-yl)-4-phenyl-pyridin-3-yl]-N-methyl-isobutyramide]
